Measured values as given in patent publication US10800784B2, “Nitrogen-containing heterocyclic amide compound and pharmaceutical use thereof” (Japan Tobacco Inc., priority 2018, dated 2020).

Key:
human PDHK1 (hPDHK1) = human PDHK1 (hPDHK1) (Homo sapiens (Human), UniProt Q15118); test: Inhibitory action of PDHK1 activity in vitro (residual PDH activity after PDHK reaction); type: biochemical; details: for IC50: PDH/hPDHK1 complex solution, PDHK reaction at room temperature for 45 min, NADH absorbance at 340 nm, read-out: hPDK1 IC50; for inhibition at 0.003 µM: at 3 nmol/L, shown when IC50 value could not be calculated, read-out: hPDHK1 inhibitory rate at the lowest concentration of the test compound
Chain of human PDHK1 (hPDHK1) (Q15118 29-436): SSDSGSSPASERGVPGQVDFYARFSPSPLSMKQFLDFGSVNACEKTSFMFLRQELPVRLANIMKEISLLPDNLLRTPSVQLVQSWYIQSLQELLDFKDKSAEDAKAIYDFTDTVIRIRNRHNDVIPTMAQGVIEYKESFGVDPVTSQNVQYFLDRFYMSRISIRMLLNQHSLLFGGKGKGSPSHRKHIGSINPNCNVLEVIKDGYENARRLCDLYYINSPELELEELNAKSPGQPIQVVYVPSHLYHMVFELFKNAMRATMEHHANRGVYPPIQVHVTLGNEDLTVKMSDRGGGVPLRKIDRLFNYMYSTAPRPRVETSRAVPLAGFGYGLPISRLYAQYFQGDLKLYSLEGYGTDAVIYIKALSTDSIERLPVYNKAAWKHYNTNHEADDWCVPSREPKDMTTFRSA
Summary of the method: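 N-FLAG hPDHK1 (E. coli-expressed, 0.5 μg/mL) precomplexed overnight at 4 °C with porcine heart PDH (0.025 U/mL), then reacted 45 min at room temperature with compound and ATP (0.353 μmol/L as added) in MOPS pH 7.0 buffer. Residual PDH activity after 90 min with pyruvate, CoA, NAD, TPP read as NADH at 340 nm.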

human PDHK2 (hPDHK2) = human PDHK2 (hPDHK2) (Homo sapiens (Human), UniProt Q15119); test: Inhibitory action of PDHK2 activity in vitro (residual PDH activity after PDHK reaction); type: biochemical; details: PDH/hPDHK2 complex solution, PDHK reaction at room temperature for 45 min, NADH absorbance at 340 nm; read-out: kPDK2 IC50
Summary of the method: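 Indirect assay: FLAG-tagged hPDHK2 (0.5 μg/mL) precomplexed overnight at 4 °C with PDH (0.025 U/mL), then kinase reaction with compound and ATP 45 min at room temperature, pH 7.0 MOPS buffer. Residual PDH activity measured after 90 min with pyruvate, CoA, NAD, TPP as NADH absorbance at 340 nm, corrected for compound effect on PDH-only blank.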

Row | IC50 (human PDHK1 (hPDHK1)) [nM] | IC50 (human PDHK2 (hPDHK2)) [nM] | inhibition at 0.003 µM (human PDHK1 (hPDHK1)) [%] | Compound
1 | 7 | 7 |  | C[C@H]1CN(C(=O)c2cc(C3CC3)nn2C2CC2)Cc2cnc([C@@](C)(O)C(F)(F)F)n21 [Example 29]
2 | < 3 | 4 | 69 | C[C@H]1CN(C(=O)c2n[nH]c3ccccc23)Cc2onc([C@@](C)(O)C(F)(F)F)c21 [Example 101]
3 | 13 | 12 |  | C[C@H]1CN(C(=O)c2cc(C3CC3)on2)Cc2cnc([C@@](C)(O)C(F)(F)F)n21 [Example 21]
4 | 7 | 14 |  | COc1ccc(-c2cc(C(=O)N3Cc4cnc([C@@](C)(O)C(F)(F)F)n4[C@@H](C)C3)no2)cc1 [Example 25]
5 | < 3 | 5 | 55 | C[C@H]1CN(C(=O)c2nn(C)c3cc(C#N)ccc23)Cc2cnc([C@@](C)(O)C(F)(F)F)n21 [Example 5, 1-methyl-3-((S)-5-methyl-3-((R)-1,1,1-trifluoro-2-hydroxypropan-2-yl)-5,6,7,8-tetrahydroimidazo[1,5-a]pyrazine-7-carbonyl)-1H-indazole-6-carbonitrile]
6 | 5 | 8 |  | C[C@H]1CN(C(=O)c2ccc(F)c(-c3ncc(F)cc3C#N)c2)Cc2cnc([C@@](C)(O)C(F)(F)F)n21 [Example 69]
7 | 6 | 6 |  | C[C@H]1CN(C(=O)c2cc(C3CC3)nc(C(F)(F)F)c2)Cc2cnc([C@@](C)(O)C(F)(F)F)n21 [Example 98]
8 | 3 | 4 |  | C[C@H]1CN(C(=O)c2ccnc(-c3ccc(C#N)cc3F)c2)Cc2cnc([C@@](C)(O)C(F)(F)F)n21 [Example 62]
9 | 5 | 7 |  | C[C@H]1CN(C(=O)c2cc(-c3ccc(F)cn3)nn2C)Cc2cnc([C@@](C)(O)C(F)(F)F)n21 [Example 81]
10 | 5 | 6 |  | C[C@H]1CN(C(=O)c2cc(C3CC3)nn2C)Cc2onc([C@@](C)(O)C(F)(F)F)c21 [Example 108]
11 | 4 | 5 |  | Cc1c(C(=O)N2Cc3cnc([C@@](C)(O)C(F)(F)F)n3[C@@H](C)C2)ccnc1-c1ccc(C#N)cc1 [Example 65]
12 | 63 | 26 |  | C[C@H]1CN(C(=O)c2ncncc2-c2ccc(F)cc2)Cc2cnc([C@@](C)(O)C(F)(F)F)n21 [Example 97]
13 | 5 | 7 |  | C[C@H]1CN(C(=O)c2ccnc(-c3ccc(C#N)cc3)c2)Cc2cnc([C@@](C)(O)C(F)(F)F)n21 [Example 67]
14 | 7 | 7 |  | C[C@H]1CN(C(=O)c2ccc(C3CC3)cc2)Cc2cnc([C@@](C)(O)C(F)(F)F)n21 [Example 18]
15 | 4 | 6 |  | C[C@H]1CN(C(=O)c2n[nH]c3ccc(F)cc23)Cc2onc([C@@](C)(O)C(F)(F)F)c21 [Example 104]
16 | 5 | 6 |  | C[C@H]1CN(C(=O)c2c(Cl)c(-c3ccc(C#N)cc3)nn2C)Cc2cnc([C@@](C)(O)C(F)(F)F)n21 [Example 40, 4-(4-chloro-1-methyl-5-((S)-5-methyl-3-((R)-1,1,1-trifluoro-2-hydroxypropan-2-yl)-5,6,7,8-tetrahydroimidazo[1,5-a]pyrazine-7-carbonyl)-1H-pyrazol-3-yl)benzonitrile]
17 | 42 | 36 |  | C[C@H]1CN(C(=O)c2ccc(=O)n(C3CC3)c2)Cc2cnc([C@@](C)(O)C(F)(F)F)n21 [Example 24]
